From article PMC5605198, “MELK is not necessary for the proliferation of basal-like breast cancer cells” (eLife, 2017)
Where two headings read alike, the source gives them in different places.

Experiments:
GSK3A = GSK3A (Homo sapiens, UniProt P49840); assay: Z’-LYTE enzymatic assay; details: Z’-LYTE assay at [ATP]=apparent Km; read-out: Biochemical IC50 GSK3A
MKK6 = MKK6 (Homo sapiens, UniProt P52564); assay: ICKP radiometric kinase assay; assay type: biochemical; details: read-out: % AR (% kinase activity remaining)
ERK2 = ERK2 (Homo sapiens, UniProt P28482); assay: ICKP radiometric kinase assay; assay type: biochemical; details: read-out: % AR (% kinase activity remaining)
ERK5 = ERK5 (Homo sapiens, UniProt Q13164); assay: ICKP radiometric kinase assay; assay type: biochemical; details: read-out: % AR (% kinase activity remaining)
Chain of ERK5 (Q13164 whole entry): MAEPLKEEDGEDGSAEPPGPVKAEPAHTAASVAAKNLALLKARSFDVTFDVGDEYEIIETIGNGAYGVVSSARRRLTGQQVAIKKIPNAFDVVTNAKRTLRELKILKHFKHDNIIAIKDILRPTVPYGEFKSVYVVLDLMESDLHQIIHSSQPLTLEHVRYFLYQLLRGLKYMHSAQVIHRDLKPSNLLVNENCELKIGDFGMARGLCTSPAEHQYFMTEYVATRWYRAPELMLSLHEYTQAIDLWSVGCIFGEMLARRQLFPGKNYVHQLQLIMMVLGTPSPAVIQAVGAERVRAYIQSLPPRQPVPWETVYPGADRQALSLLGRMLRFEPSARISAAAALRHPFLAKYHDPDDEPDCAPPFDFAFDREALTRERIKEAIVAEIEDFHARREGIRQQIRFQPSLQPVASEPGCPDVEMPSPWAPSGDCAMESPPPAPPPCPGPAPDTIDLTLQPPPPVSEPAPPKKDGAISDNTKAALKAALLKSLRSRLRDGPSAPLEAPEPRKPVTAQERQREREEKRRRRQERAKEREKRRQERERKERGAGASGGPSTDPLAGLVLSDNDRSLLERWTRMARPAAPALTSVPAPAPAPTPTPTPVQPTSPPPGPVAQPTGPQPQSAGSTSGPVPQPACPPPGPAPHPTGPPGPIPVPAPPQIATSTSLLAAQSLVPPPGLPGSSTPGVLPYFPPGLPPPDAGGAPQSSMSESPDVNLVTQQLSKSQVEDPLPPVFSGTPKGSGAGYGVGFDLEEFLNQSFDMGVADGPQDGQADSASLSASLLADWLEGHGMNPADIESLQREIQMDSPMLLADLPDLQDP

PRK2 = PRK2 (Homo sapiens, UniProt Q16513); assay: ICKP radiometric kinase assay; assay type: biochemical; details: read-out: % AR (% kinase activity remaining)
PKD1 = PKD1 (Homo sapiens, UniProt Q15139); assay: ICKP radiometric kinase assay; assay type: biochemical; details: read-out: % AR (% kinase activity remaining)
MSK1 = MSK1 (Homo sapiens, UniProt O75582); assay: ICKP radiometric kinase assay; assay type: biochemical; details: read-out: % AR (% kinase activity remaining)
MAPKAP-K3 = MAPKAP-K3 (Homo sapiens, UniProt Q16644); assay: ICKP radiometric kinase assay; assay type: biochemical; details: read-out: % AR (% kinase activity remaining)
CHK1 = CHK1 (Homo sapiens, UniProt O14757); assay: ICKP radiometric kinase assay; assay type: biochemical; details: read-out: % AR (% kinase activity remaining)
Chain of CHK1 (O14757 whole entry): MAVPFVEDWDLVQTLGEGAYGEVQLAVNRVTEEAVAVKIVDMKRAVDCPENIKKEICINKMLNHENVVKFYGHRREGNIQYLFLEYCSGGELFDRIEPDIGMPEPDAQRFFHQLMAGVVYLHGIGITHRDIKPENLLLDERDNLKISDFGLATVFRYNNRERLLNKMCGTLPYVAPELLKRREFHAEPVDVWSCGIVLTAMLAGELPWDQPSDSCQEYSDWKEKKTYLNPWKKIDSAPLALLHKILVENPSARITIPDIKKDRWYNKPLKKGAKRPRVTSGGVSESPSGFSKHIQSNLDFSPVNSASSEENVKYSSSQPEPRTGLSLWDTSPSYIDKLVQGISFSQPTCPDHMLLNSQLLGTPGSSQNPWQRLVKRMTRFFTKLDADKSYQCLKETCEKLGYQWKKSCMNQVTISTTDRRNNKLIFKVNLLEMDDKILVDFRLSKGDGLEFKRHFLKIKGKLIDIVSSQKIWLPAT

Aurora A = Aurora A (Homo sapiens, UniProt O14965); assay: ICKP radiometric kinase assay; assay type: biochemical; details: read-out: % AR (% kinase activity remaining)
Chain of Aurora A (O14965 whole entry): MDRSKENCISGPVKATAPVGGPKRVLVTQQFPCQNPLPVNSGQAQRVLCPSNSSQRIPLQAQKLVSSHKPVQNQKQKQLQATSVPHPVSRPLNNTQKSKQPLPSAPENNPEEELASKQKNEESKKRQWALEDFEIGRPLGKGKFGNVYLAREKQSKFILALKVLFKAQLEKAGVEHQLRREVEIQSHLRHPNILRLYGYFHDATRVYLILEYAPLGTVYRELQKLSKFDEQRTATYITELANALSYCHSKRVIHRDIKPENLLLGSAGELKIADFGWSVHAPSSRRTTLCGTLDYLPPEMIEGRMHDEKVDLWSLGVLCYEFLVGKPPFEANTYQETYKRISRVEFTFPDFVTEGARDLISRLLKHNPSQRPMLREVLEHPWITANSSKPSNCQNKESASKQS

Aurora B = Aurora B (Homo sapiens, UniProt Q96GD4); assay: ICKP radiometric kinase assay; assay type: biochemical; details: read-out: % AR (% kinase activity remaining)
TLK1 = TLK1 (Homo sapiens, UniProt Q9UKI8); assay: ICKP radiometric kinase assay; assay type: biochemical; details: read-out: % AR (% kinase activity remaining)
AMPK (hum) = assay: ICKP radiometric kinase assay; assay type: biochemical, human; details: 1 μM
MARK1 = MARK1 (Homo sapiens, UniProt Q9P0L2); assay: ICKP radiometric kinase assay; assay type: biochemical; details: read-out: % AR (% kinase activity remaining)
Chain of MARK1 (Q9P0L2 whole entry): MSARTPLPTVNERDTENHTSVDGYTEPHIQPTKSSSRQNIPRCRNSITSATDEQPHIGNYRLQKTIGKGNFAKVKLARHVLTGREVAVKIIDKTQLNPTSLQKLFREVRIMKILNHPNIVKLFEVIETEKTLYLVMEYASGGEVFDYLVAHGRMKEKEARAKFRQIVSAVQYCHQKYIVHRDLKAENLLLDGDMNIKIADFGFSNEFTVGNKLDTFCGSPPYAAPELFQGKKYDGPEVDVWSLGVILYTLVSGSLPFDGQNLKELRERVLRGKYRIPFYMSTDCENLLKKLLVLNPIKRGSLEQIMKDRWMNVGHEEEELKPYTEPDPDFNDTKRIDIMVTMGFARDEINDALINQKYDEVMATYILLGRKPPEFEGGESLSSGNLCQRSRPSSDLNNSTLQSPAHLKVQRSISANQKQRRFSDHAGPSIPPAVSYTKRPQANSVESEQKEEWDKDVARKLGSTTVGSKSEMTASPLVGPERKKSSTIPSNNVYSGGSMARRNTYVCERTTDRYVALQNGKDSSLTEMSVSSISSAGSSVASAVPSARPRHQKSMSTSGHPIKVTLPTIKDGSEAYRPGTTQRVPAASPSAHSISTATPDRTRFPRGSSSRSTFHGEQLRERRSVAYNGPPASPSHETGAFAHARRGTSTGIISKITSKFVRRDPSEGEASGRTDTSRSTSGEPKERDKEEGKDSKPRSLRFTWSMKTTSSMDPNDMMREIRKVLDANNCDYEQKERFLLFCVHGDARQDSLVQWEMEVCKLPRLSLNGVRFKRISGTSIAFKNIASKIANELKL

MARK3 = MARK3 (Homo sapiens, UniProt P27448); assay: ICKP radiometric kinase assay; assay type: biochemical; details: read-out: % AR (% kinase activity remaining)
BRSK1 = BRSK1 (Homo sapiens, UniProt Q8TDC3); assay: ICKP radiometric kinase assay; assay type: biochemical; details: read-out: % AR (% kinase activity remaining)
MELK = MELK (Homo sapiens, UniProt Q14680); assay: ICKP radiometric kinase assay; assay type: biochemical; details: for remaining activity at 1 µM: read-out: % AR (% kinase activity remaining)
Chain of MELK (Q14680 whole entry): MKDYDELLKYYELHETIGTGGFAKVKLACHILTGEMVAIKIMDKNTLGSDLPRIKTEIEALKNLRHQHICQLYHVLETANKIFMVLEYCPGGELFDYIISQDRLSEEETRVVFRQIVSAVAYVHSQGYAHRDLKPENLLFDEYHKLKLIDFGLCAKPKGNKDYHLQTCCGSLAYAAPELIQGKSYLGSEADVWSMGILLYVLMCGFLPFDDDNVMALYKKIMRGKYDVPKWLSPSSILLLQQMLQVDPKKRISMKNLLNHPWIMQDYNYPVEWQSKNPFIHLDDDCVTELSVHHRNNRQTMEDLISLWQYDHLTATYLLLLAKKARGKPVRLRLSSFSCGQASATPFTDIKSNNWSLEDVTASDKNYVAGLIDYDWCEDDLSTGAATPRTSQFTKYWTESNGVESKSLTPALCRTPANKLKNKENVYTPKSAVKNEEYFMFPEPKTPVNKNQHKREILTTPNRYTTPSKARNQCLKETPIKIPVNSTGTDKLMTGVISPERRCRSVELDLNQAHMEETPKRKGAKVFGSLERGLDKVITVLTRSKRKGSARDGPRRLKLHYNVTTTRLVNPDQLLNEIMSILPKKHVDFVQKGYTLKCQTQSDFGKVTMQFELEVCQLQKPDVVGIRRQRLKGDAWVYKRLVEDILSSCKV

CK2 = CK2 (Homo sapiens, UniProt P68400); assay: ICKP radiometric kinase assay; assay type: biochemical; details: read-out: % AR (% kinase activity remaining)
DYRK2 = DYRK2 (Homo sapiens, UniProt Q92630); assay: ICKP radiometric kinase assay; assay type: biochemical; details: read-out: % AR (% kinase activity remaining)
DYRK3 = molecular target: T1, DYRK3 (Homo sapiens, UniProt O43781); assay: ICKP radiometric kinase assay; assay type: biochemical; details: for remaining activity at 1 µM: read-out: % AR (% kinase activity remaining)
T1 sequence (O43781 1-588): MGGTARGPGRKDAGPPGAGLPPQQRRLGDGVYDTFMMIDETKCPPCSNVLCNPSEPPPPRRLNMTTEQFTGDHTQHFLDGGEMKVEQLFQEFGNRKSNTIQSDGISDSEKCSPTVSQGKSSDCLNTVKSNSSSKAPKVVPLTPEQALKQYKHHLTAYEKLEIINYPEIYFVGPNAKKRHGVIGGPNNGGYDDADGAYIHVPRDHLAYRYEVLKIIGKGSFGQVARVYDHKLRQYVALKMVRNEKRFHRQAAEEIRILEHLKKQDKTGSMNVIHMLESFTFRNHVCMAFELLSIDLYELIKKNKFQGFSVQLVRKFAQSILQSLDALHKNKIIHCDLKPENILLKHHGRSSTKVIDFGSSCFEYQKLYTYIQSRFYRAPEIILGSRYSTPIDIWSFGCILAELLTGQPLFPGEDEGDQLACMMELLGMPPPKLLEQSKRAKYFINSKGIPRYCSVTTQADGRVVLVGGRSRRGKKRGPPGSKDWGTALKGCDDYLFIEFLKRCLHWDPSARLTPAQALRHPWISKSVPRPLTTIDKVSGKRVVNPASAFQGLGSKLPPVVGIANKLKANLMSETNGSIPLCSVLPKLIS

PAK5 = PAK5 (Homo sapiens, UniProt Q9P286); assay: ICKP radiometric kinase assay; assay type: biochemical; details: read-out: % AR (% kinase activity remaining)
PAK6 = PAK6 (Homo sapiens, UniProt Q9NQU5); assay: ICKP radiometric kinase assay; assay type: biochemical; details: read-out: % AR (% kinase activity remaining)
Chain of PAK6 (Q9NQU5 whole entry): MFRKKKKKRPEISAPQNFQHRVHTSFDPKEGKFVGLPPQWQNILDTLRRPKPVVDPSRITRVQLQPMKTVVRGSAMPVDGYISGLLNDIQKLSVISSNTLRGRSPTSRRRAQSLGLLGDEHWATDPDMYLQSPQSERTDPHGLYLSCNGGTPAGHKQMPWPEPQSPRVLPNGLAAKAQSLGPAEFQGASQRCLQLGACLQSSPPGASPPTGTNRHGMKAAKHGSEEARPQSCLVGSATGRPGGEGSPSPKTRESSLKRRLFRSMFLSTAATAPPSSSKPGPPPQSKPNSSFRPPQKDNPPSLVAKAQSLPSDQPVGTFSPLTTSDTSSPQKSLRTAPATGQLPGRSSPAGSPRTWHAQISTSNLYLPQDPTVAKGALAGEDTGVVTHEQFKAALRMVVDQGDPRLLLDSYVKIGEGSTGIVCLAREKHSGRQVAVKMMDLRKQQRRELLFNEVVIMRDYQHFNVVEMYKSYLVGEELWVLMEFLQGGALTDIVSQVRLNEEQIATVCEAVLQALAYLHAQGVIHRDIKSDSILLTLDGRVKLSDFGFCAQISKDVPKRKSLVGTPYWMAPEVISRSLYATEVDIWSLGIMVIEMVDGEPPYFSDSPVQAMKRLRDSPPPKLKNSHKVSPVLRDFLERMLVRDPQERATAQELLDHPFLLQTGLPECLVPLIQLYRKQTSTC

MST3 = MST3 (Homo sapiens, UniProt Q9Y6E0); assay: ICKP radiometric kinase assay; assay type: biochemical; details: read-out: % AR (% kinase activity remaining)
Chain of MST3 (Q9Y6E0 whole entry): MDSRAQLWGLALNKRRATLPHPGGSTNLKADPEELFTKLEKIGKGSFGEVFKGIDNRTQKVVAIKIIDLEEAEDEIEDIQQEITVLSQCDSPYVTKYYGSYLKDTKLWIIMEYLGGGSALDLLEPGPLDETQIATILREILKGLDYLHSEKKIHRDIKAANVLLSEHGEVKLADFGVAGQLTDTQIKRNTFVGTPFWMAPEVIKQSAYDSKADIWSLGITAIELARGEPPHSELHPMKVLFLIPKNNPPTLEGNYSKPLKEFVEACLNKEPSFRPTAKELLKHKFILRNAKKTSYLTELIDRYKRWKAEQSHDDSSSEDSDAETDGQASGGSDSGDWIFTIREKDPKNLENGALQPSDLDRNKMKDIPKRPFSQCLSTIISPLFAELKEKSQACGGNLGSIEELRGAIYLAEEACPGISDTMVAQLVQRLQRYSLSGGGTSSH

MINK1 = MINK1 (Homo sapiens, UniProt Q8N4C8); assay: ICKP radiometric kinase assay; assay type: biochemical; details: read-out: % AR (% kinase activity remaining)
IRAK4 = IRAK4 (Homo sapiens, UniProt Q9NWZ3); assay: ICKP radiometric kinase assay; assay type: biochemical; details: read-out: % AR (% kinase activity remaining)
ULK1 = ULK1 (Homo sapiens, UniProt O75385); assay: ICKP radiometric kinase assay; assay type: biochemical; details: read-out: % AR (% kinase activity remaining)
BTK = BTK (Homo sapiens, UniProt Q06187); assay: ICKP radiometric kinase assay; assay type: biochemical; details: read-out: % AR (% kinase activity remaining)
SYK = SYK (Homo sapiens, UniProt P43405); assay: ICKP radiometric kinase assay; assay type: biochemical; details: read-out: % AR (% kinase activity remaining)
ZAP70 = ZAP70 (Homo sapiens, UniProt P43403); assay: ICKP radiometric kinase assay; assay type: biochemical; details: read-out: % AR (% kinase activity remaining)
Chain of ZAP70 (P43403 whole entry): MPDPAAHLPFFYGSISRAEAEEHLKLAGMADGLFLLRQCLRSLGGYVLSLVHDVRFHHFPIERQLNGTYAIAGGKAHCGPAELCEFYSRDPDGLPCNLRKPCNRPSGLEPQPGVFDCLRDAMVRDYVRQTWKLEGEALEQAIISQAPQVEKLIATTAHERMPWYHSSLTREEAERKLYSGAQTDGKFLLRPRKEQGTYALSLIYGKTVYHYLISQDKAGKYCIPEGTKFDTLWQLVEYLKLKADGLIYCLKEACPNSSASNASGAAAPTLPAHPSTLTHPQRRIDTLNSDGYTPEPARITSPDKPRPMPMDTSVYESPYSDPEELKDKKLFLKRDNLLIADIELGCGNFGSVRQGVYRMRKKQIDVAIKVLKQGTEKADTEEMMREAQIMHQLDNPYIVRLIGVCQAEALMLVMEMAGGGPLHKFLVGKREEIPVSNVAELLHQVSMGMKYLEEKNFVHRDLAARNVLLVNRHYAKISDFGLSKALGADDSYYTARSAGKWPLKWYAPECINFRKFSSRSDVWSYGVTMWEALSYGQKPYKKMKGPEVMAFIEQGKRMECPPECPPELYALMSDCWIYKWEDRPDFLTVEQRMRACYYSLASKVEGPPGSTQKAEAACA

EPH-A2 = EPH-A2 (Homo sapiens, UniProt P29317); assay: ICKP radiometric kinase assay; assay type: biochemical; details: read-out: % AR (% kinase activity remaining)
EPH-B2 = EPH-B2 (Homo sapiens, UniProt P29323); assay: ICKP radiometric kinase assay; assay type: biochemical; details: read-out: % AR (% kinase activity remaining)
HCC70 = assay: Cell proliferation assay (CellTiter-Glo); details: Homo sapiens
MCF7 = assay: Cell proliferation assay (CellTiter-Glo); details: Homo sapiens
[1] = tested on: MDA-MB-468 (second source); assay: Cell proliferation assay (CellTiter-Glo); details: Homo sapiens, MDA-MB-468, 168 h, read-out: 7-day antiproliferative IC50
[2] = HCC70, 72 h, read-out: 3-day antiproliferative IC50
[3] = HCC70, 168 h, read-out: 7-day antiproliferative IC50
[4] = MCF7, 72 h, read-out: 3-day antiproliferative IC50
[5] = MCF7, 168 h, read-out: 7-day antiproliferative IC50

Row | Compound | IC50 (GSK3A) [nM] | remaining activity at 1 µM (MKK6) [%] | remaining activity at 1 µM (ERK2) [%] | remaining activity at 1 µM (ERK5) [%] | remaining activity at 1 µM (PRK2) [%] | remaining activity at 1 µM (PKD1) [%] | remaining activity at 1 µM (MSK1) [%] | remaining activity at 1 µM (MAPKAP-K3) [%] | remaining activity at 1 µM (CHK1) [%] | remaining activity at 1 µM (Aurora A) [%] | remaining activity at 1 µM (Aurora B) [%] | remaining activity at 1 µM (TLK1) [%] | % AR (% kinase activity remaining) (AMPK (hum)) [%] | remaining activity at 1 µM (MARK1) [%] | remaining activity at 1 µM (MARK3) [%] | remaining activity at 1 µM (BRSK1) [%] | remaining activity at 1 µM (MELK) [%] | remaining activity at 1 µM (CK2) [%] | remaining activity at 1 µM (DYRK2) [%] | remaining activity at 1 µM (DYRK3) [%] | also measured
1 | CN(C)C[C@H]1CC[C@H](N2C(=O)NCc3cnc4ccc(-c5cc(Cl)c(O)c(Cl)c5)cc4c32)CC1 [HTH-01-091, 9-(3,5-dichloro-4-hydroxyphenyl)-1-(trans-4-((dimethylamino)methyl)cyclohexyl)-3,4-dihydropyrimido[5,4 c]quinolin-2(1H)-one] | 1740 | 99 | 93 | 70 | 77 | 79 | 65 | 89 | 86 | 98 | 35 | 95 | 34 | 97 | 94 | 85 | 13 | 23 | 18 | 5 | IC50 (MELK; radioactive filter-binding assay provided by the ICKP, read-out: Enzymatic IC50 MELK): 15.3 nM; IC50 (DYRK3; radioactive filter-binding assay provided by the ICKP, read-out: Enzymatic IC50 DYRK3): 41.8 nM; remaining activity at 1 µM (PAK5): 73%; remaining activity at 1 µM (PAK6): 89%; remaining activity at 1 µM (MST3): 93%; remaining activity at 1 µM (MINK1): 38%; remaining activity at 1 µM (IRAK4): 85%; remaining activity at 1 µM (ULK1): 93%; remaining activity at 1 µM (BTK): 45%; remaining activity at 1 µM (SYK): 112%; remaining activity at 1 µM (ZAP70): 98%; remaining activity at 1 µM (EPH-A2): 66%; remaining activity at 1 µM (EPH-B2): 70%; IC50 (HCC70; [2]): 8800 nM; IC50 (HCC70; [3]): 2430 nM; IC50 (MCF7; [4]): 8750 nM; IC50 (MCF7; [5]): 4130 nM; IC50 [1]: 10700 nM
2 | CC(=O)c1cnc2ccc(-c3cc(Cl)c(O)c(Cl)c3)nc2c1N[C@H]1CC[C@H](CN(C)C)CC1 [OTSSP167] | 1.6 | 80 | 90 | 4 | 2 | 6 | 5 | 94 | 11 | 10 | 14 | 58 | 1 | 31 | 13 | 2 | 6 | 1 | 1 | 1 | remaining activity at 1 µM (PAK5): 19%; remaining activity at 1 µM (PAK6): 29%; remaining activity at 1 µM (MST3): 5%; remaining activity at 1 µM (MINK1): 2%; remaining activity at 1 µM (IRAK4): 7%; remaining activity at 1 µM (ULK1): 32%; remaining activity at 1 µM (BTK): 7%; remaining activity at 1 µM (SYK): 7%; remaining activity at 1 µM (ZAP70): 78%; remaining activity at 1 µM (EPH-A2): 7%; remaining activity at 1 µM (EPH-B2): 1%; IC50 (HCC70; [2]): 34 nM; IC50 (HCC70; [3]): 21 nM; IC50 (MCF7; [4]): 35 nM; IC50 (MCF7; [5]): 27 nM; IC50 [1]: 33 nM
